From PubChem BioAssay AID2060362 (Molecular Pharmacology Branch, DTP, NCI, 2025)
pIC50: −log10 of the molar value. Where “and” joins values, the source holds several entries; their conditions need not be identical. Equal entries are not always repeated.

Test system: 128128-338-R-J1-PDC spheroids, viability % test/control
Assay: Anticancer human tumor 128128-338-R-J1-PDC patient-derived melanoma cell line growth inhibition [TAK]
Settings: spheroids with HUVEC and MSC; for viability, T/C: stronger effect = lower value
From the text: Combinatorial screen of targeted agents with TAK-243 and ipatasertib in multi-cell type tumor spheroids
A high-throughput screen of multi-cell type tumor spheroids was designed to identify active combinations of targeted small molecules and TAK-243 or ipatasertib. Complex spheroids include a stromal component modeled by human endothelial cells (HUVEC) and fibroblasts modeled by human mesenchymal stem cells (MSCs). The concentration ranges selected for each drug and investigational agent were based upon clinically achievable concentrations if the clinical Cmax of the agent was known.
Compounds. The drugs and investigational agents: TAK-243 (785004), ipatasertib (767898), everolimus (733504), selumetinib (741078), bortezomib (756655), trametinib (758246), ixazomib (758254), vemurafenib (761431), dabrafenib (764134), sapanisertib (764658), alpelisib (765974), and copanlisib (816437), were obtained from the National Cancer Institute (NCI) Developmental Therapeutics Program Chemical Repository. The FDA-approved anticancer drug set is available from the NCI Developmental Therapeutics Program. […] The stock solutions were prepared in dimethyl sulfoxide (DMSO, Sigma-Aldrich, St. Louis, MO, cat. D2650) at 800-fold the tested concentration and stored at -70 degrees C prior to their use. All drugs and investigational agents were tested over a range starting from a high concentration at or near the clinical Cmax and decreasing in half-log increments. If the clinical Cmax for an agent had not been determined, the highest concentration tested was 10 microM.
NCI60 Cell Culture. NCI60 cell lines were obtained from the NCI Developmental Therapeutics Program Tumor Repository. For each lot of cells, the Repository performed Applied Biosystems AmpFLSTR Identifiler testing with PCR amplification to confirm consistency with the published Identifier STR profile for each cell line. Cells were kept in continuous culture for no more than 20 passages. The optimal seeding densities for each of the cell lines at each time point assessed were determined prior to performing the concentration response studies. Briefly, the NCI60 human tumor lines were grown as monolayers in RPMI 1640 medium supplemented with 10% FBS and 2 mmol/L L-glutamine.
An additional 2 lines were from the NCI60 cell line panel including melanomas, MALME-3M and SK-MEL-2. Pooled donor human umbilical vein endothelial cells (HUVEC, Lonza, cat. CC-2519) and human mesenchymal stem cells (hMSC, Lonza, cat. PT-2501) were purchased from Lonza (Walkersville, MD).
PDMR cell lines were grown in complete medium (DC medium): Dulbecco's modified Eagle's medium (DMEM)/F12 supplemented with 5% fetal bovine serum (FBS), 2 mM L-glutamine, 100 U/mL penicillin and 100 µg/ml streptomycin, 0.4 µg/ml hydrocortisone, 10 ng/ml epidermal growth factor (EGF) recombinant human protein, 24 µg/mL adenine, and 0.1 mg/mL primocin. During culture from frozen stock vials, PDMR cells were cultured in the same medium containing 10 µM Y-27632 (see Table 3). The PDCs were cultured in complete DMEM/F12 media without 10 microM Y-27632 dihydrochloride for at least two passages prior to the screen. The pooled donor HUVEC and hMSC were cultured in endothelial cell growth medium 2 (PromoCell, Heidelberg, Germany, cat. C-22011) and mesenchymal stem cell growth medium 2 (PromoCell, cat. C-28009), respectively. For all experiments, HUVEC and hMSC were used at passages </=5.
For the pre-screen, cell seeding densities were determined from a titration spanning the range from 5,000 to 313 cells per well. The mct-spheroids including 60% malignant cells, 25% HUVEC and 15% MSC dispensed as a mixture into U-bottom Ultra-Low Attachment 384-well plates (Corning, NY)
High-throughput Drug Combination Screening.
Prior to their inoculation into 384-well plates, malignant cells, HUVEC, and hMSC were removed from T flasks using TrypLE express (Thermo Fisher Scientific, cat. 12605036) and harvested by centrifugation for 5 min at 233 x g. […]

[1] = curve of first compound, second compound 0.3 µM
[2] = curve of first compound, second compound 0.949 µM
[3] = curve of first compound, second compound 3 µM
[4] = curve of first compound, second compound 9.49 µM
[5] = curve of first compound, second compound 30 µM
[6] = second compound 0.3 µM, first compound 0.00316 µM
[7] = second compound 0.3 µM, first compound 0.01 µM
[8] = second compound 0.949 µM, first compound 0.00316 µM
[9] = second compound 0.949 µM, first compound 0.01 µM
[10] = second compound 3 µM, first compound 0.00316 µM
[11] = second compound 3 µM, first compound 0.01 µM
[12] = second compound 9.49 µM, first compound 0.00316 µM
[13] = second compound 9.49 µM, first compound 0.01 µM
[14] = second compound 30 µM, first compound 0.00316 µM
[15] = second compound 30 µM, first compound 0.01 µM
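Further: spheroids exposed to compounds for 7 days.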
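Wherever viability, T/C is given: 100% = DMSO vehicle wells.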

For CC(C)n1nc(-c2ccc3oc(N)nc3c2)c2c(N)ncnc21, the viability, T/C (compound 0.000316 µM) was 99.1% and 106%, the viability, T/C (compound 0.001 µM) was 94.7% and 96.1% and the viability, T/C (compound 0.00316 µM) was 83.2% and 80.7%. For the same molecule, the viability, T/C (compound 0.01 µM) was 67.3% and 64.7%, the viability, T/C (compound 0.0316 µM) was 31.2% and 30.5% and the viability, T/C (compound 0.1 µM) was 6.18% and 6.1%. The pIC50 (curve of compound) was 7.77 and 7.80.
In the case of CC(C)NCC(C(=O)N1CCN(c2ncnc3c2C(C)CC3O)CC1)c1ccc(Cl)cc1 (centres undefined), the viability, T/C (compound 0.3 µM) was 102% [middle of 10 runs], the viability, T/C (compound 0.949 µM) was 93% [middle of 10 runs] and the viability, T/C (compound 3 µM) was 89.2% [middle of 10 runs]. The viability, T/C (compound 9.49 µM) was 69.5% [middle of 10 runs] and the viability, T/C (compound 30 µM) was 22.7% [middle of 10 runs].
In the case of CC(C)CC(NC(=O)C(Cc1ccccc1)NC(=O)c1cnccn1)B(O)O (centres undefined) + CC(C)NCC(C(=O)N1CCN(c2ncnc3c2C(C)CC3O)CC1)c1ccc(Cl)cc1, the pIC50 [1] was 8.74, the pIC50 [2] was 8.74 and the pIC50 [3] was 8.79. The pIC50 [4] was 8.91, the pIC50 [5] was > 10.50 and the viability, T/C (second compound 0.3 µM, first compound 31.6 pM) was 102%. For the same molecule, the viability, T/C (second compound 0.3 µM, first compound 0.0001 µM) was 102%, the viability, T/C (second compound 0.3 µM, first compound 0.000316 µM) was 96.1% and the viability, T/C (second compound 0.3 µM, first compound 0.001 µM) was 97.3%. For the same molecule, the viability, T/C [6] was 4.43%, the viability, T/C [7] was 0.08% and the viability, T/C (second compound 0.949 µM, first compound 31.6 pM) was 102%. For the same molecule, the viability, T/C (second compound 0.949 µM, first compound 0.0001 µM) was 108%, the viability, T/C (second compound 0.949 µM, first compound 0.000316 µM) was 109% and the viability, T/C (second compound 0.949 µM, first compound 0.001 µM) was 101%. For the same molecule, the viability, T/C [8] was 2.86%, the viability, T/C [9] was 0.1% and the viability, T/C (second compound 3 µM, first compound 31.6 pM) was 84%. For the same molecule, the viability, T/C (second compound 3 µM, first compound 0.0001 µM) was 87.6%, the viability, T/C (second compound 3 µM, first compound 0.000316 µM) was 90.9% and the viability, T/C (second compound 3 µM, first compound 0.001 µM) was 83.1%. It also gave a viability, T/C [10] of 6.23%, a viability, T/C [11] of 0.05% and a viability, T/C (second compound 9.49 µM, first compound 31.6 pM) of 66.8%. For the same molecule, the viability, T/C (second compound 9.49 µM, first compound 0.0001 µM) was 71%, the viability, T/C (second compound 9.49 µM, first compound 0.000316 µM) was 72.5% and the viability, T/C (second compound 9.49 µM, first compound 0.001 µM) was 60%. It also gave a viability, T/C [12] of 1.26%, a viability, T/C [13] of 0.08% and a viability, T/C (second compound 30 µM, first compound 31.6 pM) of 21.8%. The viability, T/C (second compound 30 µM, first compound 0.0001 µM) was 21.8%, the viability, T/C (second compound 30 µM, first compound 0.000316 µM) was 23.7% and the viability, T/C (second compound 30 µM, first compound 0.001 µM) was 22%. The viability, T/C [14] was 0.38% and the viability, T/C [15] was 0.13%.
Work on COc1c(OCCCN2CCOCC2)ccc2c3n(c(=NC(=O)c4cnc(N)nc4)nc12)CCN3 + CC(C)NCC(C(=O)N1CCN(c2ncnc3c2C(C)CC3O)CC1)c1ccc(Cl)cc1 yielded a pIC50 [1] of 6.80, a pIC50 [2] of 6.81 and a pIC50 [3] of 7.03. For the same molecule, the pIC50 [4] was 7.32, the pIC50 [5] was > 8.50 and the viability, T/C [6] was 99.3%. It also gave a viability, T/C [7] of 103%, a viability, T/C (second compound 0.3 µM, first compound 0.0316 µM) of 85.7% and a viability, T/C (second compound 0.3 µM, first compound 0.1 µM) of 71.9%. For the same molecule, the viability, T/C (second compound 0.3 µM, first compound 0.316 µM) was 19.8%, the viability, T/C (second compound 0.3 µM, first compound 1 µM) was 10.2% and the viability, T/C [8] was 93.4%. The viability, T/C [9] was 107%, the viability, T/C (second compound 0.949 µM, first compound 0.0316 µM) was 90.3% and the viability, T/C (second compound 0.949 µM, first compound 0.1 µM) was 68.8%. The viability, T/C (second compound 0.949 µM, first compound 0.316 µM) was 19.5%, the viability, T/C (second compound 0.949 µM, first compound 1 µM) was 6.65% and the viability, T/C [10] was 90.8%. For the same molecule, the viability, T/C [11] was 88.3%, the viability, T/C (second compound 3 µM, first compound 0.0316 µM) was 77.7% and the viability, T/C (second compound 3 µM, first compound 0.1 µM) was 47.3%. For the same molecule, the viability, T/C (second compound 3 µM, first compound 0.316 µM) was 19.3%, the viability, T/C (second compound 3 µM, first compound 1 µM) was 6.49% and the viability, T/C [12] was 62%. It also gave a viability, T/C [13] of 74.2%, a viability, T/C (second compound 9.49 µM, first compound 0.0316 µM) of 57.5% and a viability, T/C (second compound 9.49 µM, first compound 0.1 µM) of 33.3%. The viability, T/C (second compound 9.49 µM, first compound 0.316 µM) was 11.9%, the viability, T/C (second compound 9.49 µM, first compound 1 µM) was 8.21% and the viability, T/C [14] was 19.5%. The viability, T/C [15] was 19.5%, the viability, T/C (second compound 30 µM, first compound 0.0316 µM) was 13.6% and the viability, T/C (second compound 30 µM, first compound 0.1 µM) was 8.31%. It also gave a viability, T/C (second compound 30 µM, first compound 0.316 µM) of 1.28% and a viability, T/C (second compound 30 µM, first compound 1 µM) of 0.56%.
With Cc1nc(NC(=O)N2CCCC2C(N)=O)sc1-c1ccnc(C(C)(C)C(F)(F)F)c1 (centres undefined) the viability, T/C (compound 0.0316 µM) was 96.8% and 97.9%, the viability, T/C (compound 0.1 µM) was 98% and 97.4% and the viability, T/C (compound 0.316 µM) was 96% and 95.9%. The viability, T/C (compound 1 µM) was 96.9% and 92.3%, the viability, T/C (compound 3.16 µM) was 90.8% and 88.5% and the viability, T/C (compound 10 µM) was 81.5% and 71.4%. For the same molecule, the pIC50 (curve of compound) was < 5.00.
